Experimental data published in US20200385371A1 (Propellon Therapeutics Inc., priority 2017, published 2020).
Like-named read-outs stand apart in the source and are kept apart here.

Experiments:
WDR5 [1] = target: T1, WDR5 (Homo sapiens, UniProt P61964); assay: Surface Plasmon Resonance (SPR) assay; format: binding; set-up: Full length WDR5 with an N-terminal His tag and C-terminal AviTag; His tag (N); made in house; host or cells: E. coli
Experimental: Exemplary compounds of the application were dissolved in 100% DMSO at 10 mM, assayed fresh, and then stored at −20° C. for repeat studies and other experiments. Full length WDR5 with an N-terminal His tag and C-terminal AviTag (Avidity Inc.) was expressed in E. coli with coexpression of BirA to biotin label the protein in vivo. Purification was via Ni-NTA.
SPR studies were performed using a Biacore™ T200 instrument (GE Health Sciences Inc.). Biotinylated WDR5 protein (approximately 3000RU) was stably captured to streptavidin coupled SA chips according to the manufacture's protocol (GE Health Sciences Inc.). The running buffer used was HBS-EP (20 mM Hepes pH 7.4, 150 mM NaCl, 3 mM EDTA, 0.05% P-20) plus 5% DMSO with a flow rate of 40 μl/min. For SPR analysis, 5 different concentrations of each exemplary compound of the application were sprayed into 96 or 384 well plates using an HP D300 digital dispenser. The concentration ranged from about 195 nM to about 12 nM in a two-fold series. […] Curve fitting and KD calculations were performed with the Biacore T200 Evalutation software (GE Health Sciences Inc).

WDR5 [2] = target: T1, WDR5; assay: Fluorescence Polarization (FP) binding assay
Experimental: H3 (1-15) ([…]), and 9-Ala-FAM ((Ac)-[…]-(Ahx-Ahx)-K(5,6-FAM)) (where Ahx represents 6 amino hexanoic acid linkers) peptides for WDR5 were synthesized, N-terminal-labeled with isothiocyanate-fluorescein, and purified by Tufts University Core Services (Boston, Mass.). Compound binding assays were performed at a constant labeled peptide concentration of 30 or 20 nM for H3 (1-15) and 9-Ala-FAM respectively. WDR5 concentrations of 0.3 μM for H3 (1-15) and 0.05 μM for 9-Ala-FAM were used. For both the H3 (1-15) and 9-Ala-FAM peptides, 80 mM sodium phosphate buffer (pH 6.5), 20 mM KCl, and 0.008% Triton X-100 was used. For the H3 (1-15) peptide, FP assays were measured in 10 μl aliquots in 384-well Axygen plates using a Synergy 4 microplate reader (BioTek) with an excitation wavelength of 485 nm and emission wavelength of 528 nm. For the 9-Ala-FAM peptide, FP assays were measured in 125 μl aliquots in 96 well Microfluor plates using a ViewLux instrument (Perkin Elmer) with an excitation wavelength of 480 nm and emission wavelength of 540 nm. To determine Kdsp values, the data were fit to a hyperbolic function using Sigma Plot software (Systat Software). The Kdisp values represent the average of quadruplicate measurements.

[3] = Table 2, effect of difluoro substitution, read-out: KD (SPR)

| Compound | Kd (WDR5 [1]; read-out: SPR Kd) [nM] | IC50 (WDR5 [2]) [nM] | Kd (WDR5 [1]; [3]) [nM] |
| --- | --- | --- | --- |
| C[C@@H]1CN(c2ncc(-c3c(F)cc(N4C[C@@H](C)N(C)[C@@H](C)C4)c(NC(=O)c4ccc(F)cc4C(F)(F)F)c3F)cn2)CCO1 [Example 18, N-(2,4-difluoro-3-(2-((R)-2-methylmorpholino)pyrimidin-5-yl)-6-((3S,5R)-3,4,5-trimethylpiperazin-1-yl)phenyl)-4-fluoro-2-(trifluoromethyl)benzamide formic acid] | 1.71 | 11 | – |
| C[C@@H]1CN(c2ncc(-c3c(F)cc(N4C[C@@H](C)N(C)[C@@H](C)C4)c(NC(=O)c4cn(C)c(=O)cc4C(F)(F)F)c3F)cn2)CCO1 [Example 17, N-(2,4-difluoro-3-(2-((R)-2-methylmorpholino)pyrimidin-5-yl)-6-((3S,5R)-3,4,5-trimethylpiperazin-1-yl)phenyl)-1-methyl-6-oxo-4-(trifluoromethyl)-1,6-dihydropyridine-3-carboxamide formic acid] | 1.75 | 10.1 | – |
| CC(C)OC(=O)N1CCC=C(c2c(F)cc(N3C[C@@H](C)N(C)[C@@H](C)C3)c(NC(=O)c3c[nH]c(=O)cc3C(F)F)c2F)C1 [Example 23, Isopropyl 5-(3-(4-(difluoromethyl)-6-oxo-1,6-dihydropyridine-3-carboxamido)-2,6-difluoro-4-((3S,5R)-3,4,5-trimethylpiperazin-1-yl)phenyl)-3,6-dihydropyridine-1(2H)-carboxylate] | 2.83 | 31.4 | – |
| C[C@@H]1CN(c2ncc(-c3cc(F)c(N4C[C@@H](C)N(C)[C@@H](C)C4)c(NC(=O)c4c[nH]c(=O)cc4C(F)(F)F)c3)cn2)C[C@H](C)O1 [reference compound] | – | – | 48 |
| C[C@@H]1CN(c2cc(F)c(C3=CCCN(C(=O)C(C)(C)C)C3)c(F)c2NC(=O)c2c[nH]c(=O)cc2C(F)(F)F)C[C@H](C)N1C [Example 19, N-(2,4-difluoro-3-(1-pivaloyl-1,2,5,6-tetrahydropyridin-3-yl)-6-((3S,5R)-3,4,5-trimethylpiperazin-1-yl)phenyl)-6-oxo-4-(trifluoromethyl)-1,6-dihydropyridine-3-carboxamide] | 5.31 | 31.6 | – |
| C[C@@H]1CN(c2cc(F)c(-c3cnc(N4CCO[C@@H](C)C4)nc3)c(F)c2NC(=O)c2ccc(F)cc2C(F)(F)F)C[C@H](C)N1C [Example 16, N-(2,4-difluoro-3-(2-((S)-2-methylmorpholino)pyrimidin-5-yl)-6-((3S,5R)-3,4,5-trimethylpiperazin-1-yl)phenyl)-4-fluoro-2-(trifluoromethyl)benzamide formic acid] | 1.22 | 6.99 | – |
| C[C@@H]1CN(c2cc(F)c(-c3cnc(N4CCO[C@@H](C)C4)nc3)c(F)c2NC(=O)c2cn(C)c(=O)cc2C(F)(F)F)C[C@H](C)N1C [Example 12, N-(2,4-difluoro-3-(2-((S)-2-methylmorpholino)pyrimidin-5-yl)-6-((3S,5R)-3,4,5-trimethylpiperazin-1-yl)phenyl)-1-methyl-6-oxo-4-(trifluoromethyl)-1,6-dihydropyridine-3-carboxamide formic Acid] | 1.42 | 24.6 | – |
| C[C@@H]1CN(c2ncc(-c3ccc(N4C[C@@H](C)N(C)[C@@H](C)C4)c(NC(=O)c4c[nH]c(=O)cc4C(F)(F)F)c3)cn2)C[C@H](C)O1 [reference compound] | – | – | 2.9 |
| C[C@@H]1CN(c2ncc(-c3ccc(N4C[C@@H](C)N(C)[C@@H](C)C4)c(NC(=O)c4c[nH]c(=O)cc4C(F)(F)F)c3F)cn2)C[C@H](C)O1 [reference compound] | – | – | 1.8 |
| C[C@@H]1CN(c2cc(F)c(C3=CCCN(c4ncccn4)C3)c(F)c2NC(=O)c2c[nH]c(=O)cc2C(F)(F)F)C[C@H](C)N1C [Example 15, N-(2,4-difluoro-3-(1-(pyrimidin-2-yl)-1,2,5,6-tetrahydropyridin-3-yl)-6-((3S,5R)-3,4,5-trimethylpiperazin-1-yl)phenyl)-6-oxo-4-(trifluoromethyl)-1,6-dihydropyridine-3-carboxamide] | 1.69 | 21.1 | – |
| C[C@@H]1CN(c2cc(F)c(-c3ccc(N4CCOCC4)cc3)c(F)c2NC(=O)c2c[nH]c(=O)cc2C(F)(F)F)C[C@H](C)N1C [Example 5, N-(2,6-difluoro-4′-morpholino-4-((3S,5R)-3,4,5-trimethylpiperazin-1-yl)-[1,1′-biphenyl]-3-yl)-6-oxo-4-(trifluoromethyl)-1,6-dihydropyridine-3-carboxamide] | 3.55 | 32.2 | – |
| C[C@@H]1CN(c2cc(F)c(-c3ccc(OCC4CC4)cc3)c(F)c2NC(=O)c2c[nH]c(=O)cc2C(F)(F)F)C[C@H](C)N1C [Example 7, N-(4′-(cyclopropylmethoxy)-2,6-difluoro-4-((3S,5R)-3,4,5-trimethylpiperazin-1-yl)-[1,1′-biphenyl]-3-yl)-6-oxo-4-(trifluoromethyl)-1,6-dihydropyridine-3-carboxamide] | – | 17.9 | – |

Other lines, results leading:

| Kd (WDR5 [1]; read-out: SPR Kd) [nM] | IC50 (WDR5 [2]) [nM] | Kd (WDR5 [1]; [3]) [nM] | Compound |
| --- | --- | --- | --- |
| 1.88 | 10.2 | – | C[C@@H]1CN(c2cc(F)c(C3=CCCN(C(=O)OC4(C)CCC4)C3)c(F)c2NC(=O)c2c[nH]c(=O)cc2C(F)(F)F)C[C@H](C)N1C [Example 14, 1-Methylcyclobutyl 5-(2,6-difluoro-3-(6-oxo-4-(trifluoromethyl)-1,6-dihydropyridine-3-carboxamido)-4-((3S,5R)-3,4,5-trimethylpiperazin-1-yl)phenyl)-3,6-dihydropyridine-1(2H)-carboxylate] |
| 4.5 | 37.1 | – | C[C@@H]1CN(c2cc(F)c(C3=CCCN(c4ncccn4)C3)c(F)c2NC(=O)c2c[nH]c(=O)cc2C(F)F)C[C@H](C)N1C [Example 21, N-(2,4-difluoro-3-(1-(pyrimidin-2-yl)-1,2,5,6-tetrahydropyridin-3-yl)-6-((3S,5R)-3,4,5-trimethylpiperazin-1-yl)phenyl)-4-(difluoromethyl)-6-oxo-1,6-dihydropyridine-3-carboxamide] |
| 2.02 | 31.8 | – | C[C@@H]1CN(c2cc(F)c(-c3ccc(N4CCOCC4)nc3)c(F)c2NC(=O)c2c[nH]c(=O)cc2C(F)(F)F)C[C@H](C)N1C [Example 4, N-(2,4-difluoro-3-(6-morpholinopyridin-3-yl)-6-((3S,5R)-3,4,5-trimethylpiperazin-1-yl)phenyl)-6-oxo-4-(trifluoromethyl)-1,6-dihydropyridine-3-carboxamide] |
| 2.83 | 32.9 | – | COCCOc1ccc(-c2c(F)cc(N3C[C@@H](C)N(C)[C@@H](C)C3)c(NC(=O)c3c[nH]c(=O)cc3C(F)(F)F)c2F)cn1 [Example 6, N-(2,4-difluoro-3-(6-(2-methoxyethoxy)pyridin-3-yl)-6-((3S,5R)-3,4,5-trimethylpiperazin-1-yl)phenyl)-6-oxo-4-(trifluoromethyl)-1,6-dihydropyridine-3-carboxamide] |
| 3.39 | 26.6 | – | C[C@@H]1CN(c2cc(F)c(-c3ccnc(OCC4CC4)c3)c(F)c2NC(=O)c2c[nH]c(=O)cc2C(F)(F)F)C[C@H](C)N1C [Example 3, N-(3-(2-(cyclopropylmethoxy)pyridin-4-yl)-2,4-difluoro-6-((3S,5R)-3,4,5-trimethylpiperazin-1-yl)phenyl)-6-oxo-4-(trifluoromethyl)-1,6-dihydropyridine-3-carboxamide] |
| 0.59 | – | – | C[C@@H]1CN(c2cc(F)c(-c3ccc(OCC4CC4)nc3)c(F)c2NC(=O)c2c[nH]c(=O)cc2C(F)(F)F)C[C@H](C)N1C [Example 1, N-(3-(6-(cycloproylmethoxy)pyridin-3-yl)-2,4-difluoro-6-((3S,5R)-3,4,5-trimethylpiperazin-1-yl)phenyl)-6-oxo-4-(trifluoromethyl)-1,6-dihydropyridine-3-carboxamide] |
| 1.74 | 23 | – | C[C@@H]1CN(c2cc(F)c(C3=CCCN(C(=O)OC4(C)CCC4)C3)c(F)c2NC(=O)c2c[nH]c(=O)cc2C(F)F)C[C@H](C)N1C [Example 22, 1-Methylcyclobutyl 5-(3-(4-(difluoromethyl)-6-oxo-1,6-dihydropyridine-3-carboxamido)-2,6-difluoro-4-((3S,5R)-3,4,5-trimethylpiperazin-1-yl)phenyl)-3,6-dihydropyridine-1(2H)-carboxylate] |
